Results as given in US10478440B2, “Pharmaceutical compositions for inhibiting angiogenesis comprising plant-derived natural compound” (INDUSTRY-ACADEMIC COOPERATION FOUNDATION, YONSEI UNIVERSITY, priority 2011, dated 2019).

How the values were obtained:
[1] = system: HUVECs; experiment: Nicotine-induced tube formation of HUVECs; type: cell-based, human; conditions: nicotine 10 nM
Method: Serum-starved HUVECs were stimulated by nicotine (10 nM) in the presence or absence of voacangine. […] The basal level capillary tube formation (a) and invasiveness (b) of HUVECs that remained in serum-free media were normalized to 100%. Matrigel (10 mg/mL) was used to coat a 48-well plate and allowed to polymerize for 1 h at 37° C. HUVECs (6×10^4 cells) were seeded on the surface of the Matrigel, and then test compounds were added for 4-16 h at 37° C. in the presence or absence of VEGF (30 ng/mL). Morphological changes in the cells and formation of tubular structures were observed under a microscope (IX71, Olympus) and photographed at 100× magnification (DP70, Olympus).

[2] = system: CHANG; experiment: MTT cell proliferation assay, CHANG; type: cell-based; conditions: normal cells
[3] = system: chick embryo chorioallantoic membrane (CAM); experiment: Chorioallantoic membrane (CAM) assay; type: in vivo, chicken
Method: The CAM assay was performed as described previously. Fertilized chicken eggs were kept in a humidified incubator at 37° C. for 3 days. Approximately 2-3 mL of egg albumin was removed with a hypodermic needle, allowing the CAM and yolk sac to drop away from the shell membrane. […] After further incubation for 2 days, 2-3 mL of Intralipose (Greencross Co, Suwon, Korea) was injected beneath the CAM and the membrane was observed under a microscope. Retinoic acid (RA) was used as a positive control.

[4] = system: HUVECs; experiment: Nicotine-induced endothelial cell invasion; type: cell-based, human; conditions: nicotine 10 nM
Method: Serum-starved HUVECs were stimulated by nicotine (10 nM) in the presence or absence of voacangine. […] The basal level capillary tube formation (a) and invasiveness (b) of HUVECs that remained in serum-free media were normalized to 100%. To examine the invasiveness of HUVECs in vitro, we used a Transwell chamber system with 8.0-μm pore polycarbonate filter inserts. Briefly, the lower side of the filter was coated with gelatin (10 μL, 1 mg/mL) and the upper side was coated with Matrigel (10 μL, 3 mg/mL). […] The chamber was incubated at 37° C. for 18 h, and then the cells were fixed with 70% methanol and stained with hematoxylin and eosin. The invasiveness of cells was measured by counting the number of whole cells in the lower side of the filter using a microscope at 100× magnification, and cells were photographed at 100× magnification.

[5] = system: HepG2; experiment: MTT cell proliferation assay, HepG2; type: cell-based; conditions: Homo sapiens; HepG2, cancer cells
Method: (§1) Human umbilical vascular endothelial cells (HUVECs) were grown for 7-11 passages in EGM-2 medium supplemented with 10% FBS. HepG2 (human liver carcinoma) cells were grown in RPMI 1640 containing 10% FBS and 1% antibiotics. All cell lines were maintained at 37° C. in a humidified 5% CO2 incubator. Cell proliferation was measured using a 3-(4,5-dimethylthiazol-2-yl)-2,5-diphenyltetrazolium bromide (MTT) colorimetric assay, and cell viability was assessed using Trypan blue staining.

[6] = system: HUVECs; experiment: Chemoinvasion assay (VEGF-induced); type: cell-based, human; conditions: VEGF 30 ng/mL, serum-starved HUVECs
Method: To examine the invasiveness of HUVECs in vitro, we used a Transwell chamber system with 8.0-μm pore polycarbonate filter inserts. Briefly, the lower side of the filter was coated with gelatin (10 μL, 1 mg/mL) and the upper side was coated with Matrigel (10 μL, 3 mg/mL). Test compounds were added to the lower chamber in the presence of VEGF (30 ng/mL), and HUVECs (7×10^5 cells) were placed in the upper chamber of the filter. The chamber was incubated at 37° C. for 18 h, and then the cells were fixed with 70% methanol and stained with hematoxylin and eosin. The invasiveness of cells was measured by counting the number of whole cells in the lower side of the filter using a microscope at 100× magnification, and cells were photographed at 100× magnification.

[7] = system: HeLa; experiment: MTT cell proliferation assay, HeLa; type: cell-based; conditions: Homo sapiens, cancer cells
[8] = system: HIF-1α; experiment: Western blot of HIF-1α under hypoxic conditions; type: cell-based, human; conditions: HepG2 cells during hypoxia
Method: The cell lysates were separated by 10% SDS-PAGE, followed by transfer to PVDF membranes (Millipore, Bedford, Mass.) using standard electroblotting procedures. Blots were then blocked and immunolabeled overnight at 4° C. with primary antibodies, including anti-HIF-1α and anti-tubulin antibodies. Immunolabeling was detected by an enhanced chemiluminescence (ECL) kit (GE Healthcare, Buckinghamshire, UK) according to the manufacturer's instructions. For hypoxic conditions, cells were incubated at 5% CO2 with 1% O2 balanced with N2 in an anaerobic chamber (Forma).

[9] = system: HUVECs; experiment: In vitro tumor cell-induced angiogenesis assay (combinated-chemoinvasion assay); type: cell-based, human; conditions: HepG2 in lower chamber, without VEGF
Method: To examine the invasive activity of […], a Transwell chamber system with 8.0-μm pore polycarbonate filter inserts was used. Briefly, the lower side of the filter was coated with gelatin (10 μL, 1 mg/mL) and the upper side was coated with Matrigel (10 μL, 3 mg/mL). Next, tumor cell HepG2 was added to the lower chamber. Test compounds were added to the lower chamber without VEGF and HUVECs (7×10^5 cells) were placed in the upper chamber of the filter. The chamber was incubated at 37° C. for 18 h, and then the cells were fixed with 70% methanol and stained with hematoxylin and eosin. Invasiveness was measured by counting the number of whole cells on the lower side of the filter using a microscope at 100× magnification, and cells were photographed at 100× magnification.

[10] = system: capsaicin contraction; conditions: literature [9]; cited from earlier work
[11] = system: HT1080; experiment: MTT cell proliferation assay, HT1080; type: cell-based; conditions: Homo sapiens, HT-1080; HT1080, cancer cells
[12] = system: HUVECs; experiment: Capillary tube formation assay (VEGF-induced); type: cell-based, human; conditions: VEGF 30 ng/mL, serum-starved HUVECs
Method: Matrigel (10 mg/mL) was used to coat a 48-well plate and allowed to polymerize for 1 h at 37° C. HUVECs (6×10^4 cells) were seeded on the surface of the Matrigel, and then test compounds were added for 4-16 h at 37° C. in the presence or absence of VEGF (30 ng/mL). Morphological changes in the cells and formation of tubular structures were observed under a microscope (IX71, Olympus) and photographed at 100× magnification (DP70, Olympus).

[13] = system: HUVECs; experiment: Trypan blue cell viability; conditions: doses up to 20 μM for 3 days
[14] = system: HUVECs; experiment: MTT cell proliferation assay, HUVECs; type: cell-based, human
Method: as §1

[15] = system: VEGF; experiment: Measurement of VEGF by ELISA; type: cell-based, human; conditions: HepG2 cells
Method: The VEGF concentration in media from voacangine-treated cells was determined using a VEGF Immunoassay kit (R&D Systems, Minneapolis, Minn.) according to the manufacturer's instructions. The results were expressed as concentration of VEGF relative to the total amount of VEGF from each well.

Compound: CC[C@H]1C[C@@H]2CN3CCc4c([nH]c5ccc(OC)cc45)[C@](C(=O)OC)(C2)C13 [voacangine, 12-methoxyibogamine-18-carboxylic acid methyl ester]
- nicotine-induced angiogenesis (tube formation) [1]: inhibit nicotine-induced angiogenesis
- IC50 [2]: 26 µM
- capillary formation during CAM development ([3]; 2 and 4 μg/egg, 2 days): dose-dependently inhibited capillary formation
- signs of thrombosis or hemorrhage in CAM ([3]; 2 days treatment): no apparent signs of thrombosis or hemorrhage
- nicotine-induced invasion of HUVECs [4]: inhibit nicotine-induced angiogenesis and invasion of HUVECs in a dose-dependent manner
- IC50 [5]: 42 µM
- VEGF-induced invasiveness of HUVECs [6]: inhibited the VEGF-induced enhanced invasiveness of HUVECs in a dose-dependent manner
- IC50 [7]: 23 µM
- expression level of HIF-1α [8]: dose-dependently reduced
- synthesis of cyclin D1 and tubulin ([8]; Western blot): without inhibiting the synthesis of other proteins
- tumor cell-induced invasiveness of HUVECs by hypoxia [9]: dose-dependently inhibited
- capsaicin contraction [10]: inhibit capsaicin contraction in a dose-dependent manner
- IC50 [11]: 33 µM
- VEGF-induced tube formation [12]: inhibited VEGF-induced tube formation in a dose-dependent manner
- cytotoxicity on HUVECs (trypan blue exclusion) [13]: no cytotoxicity
- cell growth ([14]; 10 μM, 3 days, MTT): inhibited cell growth
- IC50 ([14]; Homo sapiens, HUVEC, HUVECs, normal cells): 18 µM
- growth inhibition on HUVECs versus other cell lines ([14]; compared with other normal and cancer cell lines (Table 1)): greater growth inhibition effect on HUVECs than on other normal and cancer cell lines
- hypoxia-induced expression of VEGF [15]: inhibited the hypoxia-induced expression of VEGF

Compound: CN1CCCC1c1cccnc1 (stereo not drawn) [nicotine, reference compound]
- increase of angiogenesis (tube formation) activity ([1]; serum-starved HUVECs): 2.5 fold
- increase of cell invasion activity ([4]; serum-starved HUVECs): 2.0 fold
